Each structure is given as a SMILES string. A value given as a limit tells only on which side of the number the result lay.

The source of these data is ChEMBL document CHEMBL5465560, “Selectivity Literature for EUbOPEN Chemogenomic Library” (2024).

For test [1], the target named is Serine/threonine-protein kinase 10 (Homo sapiens) (UniProt O94804). Briefly: Selectivity interaction (Kinase panel (KiNativ target engagement assay in Jurkat cells)) EUB0001635a STK10. The class given is cell-based. Particulars: Selectivity number of off-targets 0.0, Selectivity number of targets 233.0, Source Knowledge https://www.sciencedirect.com/science/article/pii/S2451945619300674?via%3Dihub, at 1 µM.
Sequence of Serine/threonine-protein kinase 10 (Homo sapiens) (O94804 whole entry, looked up): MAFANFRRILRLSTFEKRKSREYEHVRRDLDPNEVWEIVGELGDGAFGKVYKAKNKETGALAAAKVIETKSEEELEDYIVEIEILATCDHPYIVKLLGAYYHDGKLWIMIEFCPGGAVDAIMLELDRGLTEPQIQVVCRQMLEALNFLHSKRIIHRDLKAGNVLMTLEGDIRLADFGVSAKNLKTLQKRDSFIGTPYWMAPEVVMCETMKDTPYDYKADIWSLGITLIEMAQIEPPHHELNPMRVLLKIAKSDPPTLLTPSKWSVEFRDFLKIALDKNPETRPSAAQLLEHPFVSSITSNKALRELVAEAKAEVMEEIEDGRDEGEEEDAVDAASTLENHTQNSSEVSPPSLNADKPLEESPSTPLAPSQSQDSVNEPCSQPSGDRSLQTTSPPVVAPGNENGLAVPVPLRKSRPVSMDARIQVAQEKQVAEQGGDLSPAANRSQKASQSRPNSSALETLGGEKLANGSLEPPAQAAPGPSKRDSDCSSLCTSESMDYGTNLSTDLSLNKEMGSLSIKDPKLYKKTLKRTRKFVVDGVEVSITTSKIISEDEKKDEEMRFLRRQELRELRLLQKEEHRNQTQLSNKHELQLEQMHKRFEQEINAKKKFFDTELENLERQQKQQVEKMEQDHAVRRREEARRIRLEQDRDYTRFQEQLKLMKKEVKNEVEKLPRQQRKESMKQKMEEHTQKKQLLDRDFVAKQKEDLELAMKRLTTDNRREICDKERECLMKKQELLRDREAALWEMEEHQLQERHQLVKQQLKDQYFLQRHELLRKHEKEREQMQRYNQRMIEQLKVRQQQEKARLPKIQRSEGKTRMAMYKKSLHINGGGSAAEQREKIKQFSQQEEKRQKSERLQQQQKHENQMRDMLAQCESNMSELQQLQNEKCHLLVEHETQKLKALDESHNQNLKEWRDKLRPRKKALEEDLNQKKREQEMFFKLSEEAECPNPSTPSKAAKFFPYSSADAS

Test [2] addresses Serine/threonine-protein kinase Nek6 (Homo sapiens) (UniProt Q9HC98). Briefly: Selectivity interaction (Ambit KINOMEscan and KiNATiv profiling in Jurkat cells) EUB0000090b NEK6. The conditions noted are these: at 1 µM. The class given is cell-based.
For a further test, the target named is SRSF protein kinase 1 (Homo sapiens, UniProt Q96SB4). Briefly: Selectivity interaction (SelectScreen profiling (Invitrogen)) EUB0000607a SRPK1. The conditions noted are these: at 2 µM.
Sequence of SRSF protein kinase 1 (Q96SB4 whole entry): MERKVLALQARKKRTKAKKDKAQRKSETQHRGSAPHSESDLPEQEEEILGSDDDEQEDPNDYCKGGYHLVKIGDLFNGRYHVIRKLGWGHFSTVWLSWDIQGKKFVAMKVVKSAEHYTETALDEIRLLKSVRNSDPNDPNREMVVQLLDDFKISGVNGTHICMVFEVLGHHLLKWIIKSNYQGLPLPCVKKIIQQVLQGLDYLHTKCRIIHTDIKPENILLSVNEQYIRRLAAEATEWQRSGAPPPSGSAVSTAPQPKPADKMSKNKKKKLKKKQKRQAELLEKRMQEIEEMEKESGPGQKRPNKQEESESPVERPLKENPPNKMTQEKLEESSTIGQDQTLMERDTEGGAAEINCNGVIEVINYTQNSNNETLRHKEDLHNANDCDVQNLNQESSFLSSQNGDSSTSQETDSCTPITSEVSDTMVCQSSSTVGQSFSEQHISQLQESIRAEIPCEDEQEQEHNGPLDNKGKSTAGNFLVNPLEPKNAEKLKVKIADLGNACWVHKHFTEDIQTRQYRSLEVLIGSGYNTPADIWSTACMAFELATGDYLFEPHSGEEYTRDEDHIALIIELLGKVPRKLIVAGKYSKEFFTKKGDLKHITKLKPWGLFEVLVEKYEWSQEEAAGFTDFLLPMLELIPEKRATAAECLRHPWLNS
The target in test [3] is T1, Serine/threonine-protein kinase Nek2 (Homo sapiens) (UniProt P51955).
T1 sequence (whole entry): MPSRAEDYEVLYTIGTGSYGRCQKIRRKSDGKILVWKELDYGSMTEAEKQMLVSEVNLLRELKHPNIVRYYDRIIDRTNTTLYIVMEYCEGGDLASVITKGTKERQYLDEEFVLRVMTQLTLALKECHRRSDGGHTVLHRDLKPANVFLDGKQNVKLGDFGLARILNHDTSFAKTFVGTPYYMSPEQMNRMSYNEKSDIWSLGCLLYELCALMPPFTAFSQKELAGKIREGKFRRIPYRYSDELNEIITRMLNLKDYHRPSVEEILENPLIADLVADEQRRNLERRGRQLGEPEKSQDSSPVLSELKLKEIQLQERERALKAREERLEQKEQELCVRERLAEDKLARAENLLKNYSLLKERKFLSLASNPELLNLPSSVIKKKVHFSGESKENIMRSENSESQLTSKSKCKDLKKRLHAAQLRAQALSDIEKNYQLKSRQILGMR
Briefly: Selectivity interaction (Kinase panel (DSF assay)) EUB0001558a NEK2. For orientation: DSF heats the sample and reads unfolding from a dye or from intrinsic fluorescence.

For test [4], the target named is Histone-lysine N-methyltransferase 2A (Homo sapiens) (UniProt Q03164). Particulars: at 10 µM.
The target of test [5] is Calcium/calmodulin-dependent protein kinase type 1G (Homo sapiens) (UniProt Q96NX5). Briefly: Selectivity interaction (KinomeScan (DiscoverX)) EUB0000229b CAMK1G. Particulars: at 10 µM.
Sequence of Calcium/calmodulin-dependent protein kinase type 1G (Homo sapiens) (Q96NX5 whole entry): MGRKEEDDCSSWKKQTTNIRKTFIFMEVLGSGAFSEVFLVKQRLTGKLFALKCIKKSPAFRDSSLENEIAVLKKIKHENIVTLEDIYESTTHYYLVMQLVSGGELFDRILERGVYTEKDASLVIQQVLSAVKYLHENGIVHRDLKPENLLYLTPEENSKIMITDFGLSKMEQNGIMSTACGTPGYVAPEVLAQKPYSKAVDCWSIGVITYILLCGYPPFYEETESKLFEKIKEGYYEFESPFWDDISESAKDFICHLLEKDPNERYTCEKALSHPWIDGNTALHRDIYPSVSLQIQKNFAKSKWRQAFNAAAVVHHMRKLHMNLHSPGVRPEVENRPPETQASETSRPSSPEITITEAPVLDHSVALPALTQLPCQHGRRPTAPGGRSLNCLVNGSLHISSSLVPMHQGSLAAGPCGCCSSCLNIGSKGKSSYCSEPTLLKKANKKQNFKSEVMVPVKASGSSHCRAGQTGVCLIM
The target of test [6] is T2, Ephrin type-B receptor 4 (Homo sapiens) (UniProt P54760).
T2 sequence (whole entry): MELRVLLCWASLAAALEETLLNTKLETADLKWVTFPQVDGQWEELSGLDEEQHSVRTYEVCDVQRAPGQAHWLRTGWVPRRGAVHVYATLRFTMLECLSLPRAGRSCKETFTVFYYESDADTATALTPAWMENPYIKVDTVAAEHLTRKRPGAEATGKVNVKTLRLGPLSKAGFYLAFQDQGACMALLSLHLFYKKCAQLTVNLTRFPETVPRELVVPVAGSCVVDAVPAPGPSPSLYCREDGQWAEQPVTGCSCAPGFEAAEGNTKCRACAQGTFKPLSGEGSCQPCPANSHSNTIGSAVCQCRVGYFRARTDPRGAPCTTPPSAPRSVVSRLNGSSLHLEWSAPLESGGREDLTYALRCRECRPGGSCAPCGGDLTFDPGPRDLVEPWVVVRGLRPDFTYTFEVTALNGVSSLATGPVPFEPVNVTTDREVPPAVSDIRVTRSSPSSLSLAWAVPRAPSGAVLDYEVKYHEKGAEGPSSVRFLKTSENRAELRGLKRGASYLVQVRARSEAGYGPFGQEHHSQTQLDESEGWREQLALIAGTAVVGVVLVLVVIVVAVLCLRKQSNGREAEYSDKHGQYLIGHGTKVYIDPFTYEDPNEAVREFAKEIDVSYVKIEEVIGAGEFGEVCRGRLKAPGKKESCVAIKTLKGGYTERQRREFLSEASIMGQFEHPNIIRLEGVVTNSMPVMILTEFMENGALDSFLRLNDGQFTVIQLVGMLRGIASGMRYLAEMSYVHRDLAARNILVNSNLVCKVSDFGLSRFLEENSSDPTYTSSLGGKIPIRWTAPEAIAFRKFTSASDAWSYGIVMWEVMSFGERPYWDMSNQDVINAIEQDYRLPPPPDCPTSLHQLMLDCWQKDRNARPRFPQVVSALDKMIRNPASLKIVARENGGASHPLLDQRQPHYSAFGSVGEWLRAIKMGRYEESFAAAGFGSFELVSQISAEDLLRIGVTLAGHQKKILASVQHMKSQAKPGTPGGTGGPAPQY
Briefly: Selectivity interaction (KinomeScan (DiscoverX)) EUB0000655a EPHB4. Particulars: at 10 µM.

For test [7], the target named is Ephrin type-A receptor 2 (Homo sapiens) (UniProt P29317). Briefly: Selectivity interaction (KinomeScan (DiscoverX)) EUB0001619a EPHA2. Particulars: at 1 µM.
The target of test [8] is Calcium/calmodulin-dependent protein kinase type 1 (Homo sapiens) (UniProt Q14012). Briefly: Selectivity interaction (Kinase panel (literature)) EUB0001199aCl CAMK1. Particulars: at 1 µM.
Test [9] addresses Serine/threonine-protein kinase Nek6 (Homo sapiens) (UniProt Q9HC98). Briefly: Selectivity interaction (Kinase panel (Invitrogen)) EUB0000639a NEK6. Particulars: at 200 nM.
The target in test [10] is Cyclin-dependent kinase 3 (Homo sapiens) (UniProt Q00526). Briefly: Selectivity interaction (KinomeScan (DiscoverX)) EUB0001049a CDK3. The conditions noted are these: at 1 µM.
The target in test [11] is Mitogen-activated protein kinase 3 (Homo sapiens, UniProt P27361). Briefly: Selectivity interaction (KinomeScan (DiscoverX)) EUB0001049a MAPK3. Particulars: at 1 µM.
Sequence of Mitogen-activated protein kinase 3 (P27361 whole entry): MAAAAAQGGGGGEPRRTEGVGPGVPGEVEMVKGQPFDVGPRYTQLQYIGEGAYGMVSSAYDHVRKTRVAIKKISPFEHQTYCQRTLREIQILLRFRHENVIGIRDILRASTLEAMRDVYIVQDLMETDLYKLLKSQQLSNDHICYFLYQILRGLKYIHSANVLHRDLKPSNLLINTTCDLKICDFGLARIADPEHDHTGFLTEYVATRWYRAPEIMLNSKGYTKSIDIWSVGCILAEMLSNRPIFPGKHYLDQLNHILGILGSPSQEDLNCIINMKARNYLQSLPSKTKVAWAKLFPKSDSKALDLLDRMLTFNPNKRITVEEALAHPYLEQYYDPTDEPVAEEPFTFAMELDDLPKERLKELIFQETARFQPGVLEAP
Test [12] concerns the target STE20-like serine/threonine-protein kinase (Homo sapiens, UniProt Q9H2G2). Briefly: Selectivity interaction (KinomeScan (DiscoverX)) EUB0000695a SLK. The conditions noted are these: at 100 nM.
The target in test [13] is Serine/threonine-protein kinase mTOR (Homo sapiens, UniProt P42345). Briefly: Selectivity interaction (KinomeScan (DiscoverX)) EUB0000045b MTOR.
Test [14] has as its target High affinity nerve growth factor receptor (Homo sapiens, UniProt P04629). Briefly: Selectivity interaction (KinomeScan (DiscoverX)) EUB0000045b NTRK1.
The target of test [15] is Serine/threonine-protein kinase PRP4 homolog (Homo sapiens) (UniProt Q13523). Briefly: Selectivity interaction (KinomeScan (DiscoverX)) EUB0000618a PRPF4. The conditions noted are these: at 10 µM.

Sequence of High affinity nerve growth factor receptor (P04629 33-796 limits assumed): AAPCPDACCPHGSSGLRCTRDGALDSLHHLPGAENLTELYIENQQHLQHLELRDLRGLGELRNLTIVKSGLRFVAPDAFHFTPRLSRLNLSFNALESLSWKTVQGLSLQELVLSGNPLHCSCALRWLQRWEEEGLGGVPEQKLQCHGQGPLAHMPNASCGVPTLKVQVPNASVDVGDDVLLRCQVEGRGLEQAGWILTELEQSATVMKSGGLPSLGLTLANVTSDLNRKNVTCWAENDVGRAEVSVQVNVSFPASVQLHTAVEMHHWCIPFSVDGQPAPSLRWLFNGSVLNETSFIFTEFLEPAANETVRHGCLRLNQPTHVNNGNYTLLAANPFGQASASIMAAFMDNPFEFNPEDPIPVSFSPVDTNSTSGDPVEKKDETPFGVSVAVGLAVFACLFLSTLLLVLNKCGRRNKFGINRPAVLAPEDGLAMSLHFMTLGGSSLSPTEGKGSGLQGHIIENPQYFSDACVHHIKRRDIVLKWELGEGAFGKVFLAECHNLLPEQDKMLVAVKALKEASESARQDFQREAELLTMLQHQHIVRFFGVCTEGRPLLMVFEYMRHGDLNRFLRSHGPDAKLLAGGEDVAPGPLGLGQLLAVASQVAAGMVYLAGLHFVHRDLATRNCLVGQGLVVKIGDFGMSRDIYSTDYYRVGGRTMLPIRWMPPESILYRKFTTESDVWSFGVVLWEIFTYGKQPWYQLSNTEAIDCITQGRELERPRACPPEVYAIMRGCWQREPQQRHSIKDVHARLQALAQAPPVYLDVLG
Sequence of Serine/threonine-protein kinase Nek6 (Homo sapiens) (Q9HC98 whole entry): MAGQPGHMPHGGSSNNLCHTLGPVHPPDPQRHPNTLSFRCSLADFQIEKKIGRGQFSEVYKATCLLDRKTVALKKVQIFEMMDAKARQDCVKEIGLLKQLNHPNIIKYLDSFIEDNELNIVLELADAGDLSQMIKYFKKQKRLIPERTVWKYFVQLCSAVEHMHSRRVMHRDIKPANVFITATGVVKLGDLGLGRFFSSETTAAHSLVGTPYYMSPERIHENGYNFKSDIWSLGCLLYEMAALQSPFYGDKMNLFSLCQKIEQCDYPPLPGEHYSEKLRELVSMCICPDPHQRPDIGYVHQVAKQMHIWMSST
Sequence of STE20-like serine/threonine-protein kinase (Q9H2G2 whole entry, looked up): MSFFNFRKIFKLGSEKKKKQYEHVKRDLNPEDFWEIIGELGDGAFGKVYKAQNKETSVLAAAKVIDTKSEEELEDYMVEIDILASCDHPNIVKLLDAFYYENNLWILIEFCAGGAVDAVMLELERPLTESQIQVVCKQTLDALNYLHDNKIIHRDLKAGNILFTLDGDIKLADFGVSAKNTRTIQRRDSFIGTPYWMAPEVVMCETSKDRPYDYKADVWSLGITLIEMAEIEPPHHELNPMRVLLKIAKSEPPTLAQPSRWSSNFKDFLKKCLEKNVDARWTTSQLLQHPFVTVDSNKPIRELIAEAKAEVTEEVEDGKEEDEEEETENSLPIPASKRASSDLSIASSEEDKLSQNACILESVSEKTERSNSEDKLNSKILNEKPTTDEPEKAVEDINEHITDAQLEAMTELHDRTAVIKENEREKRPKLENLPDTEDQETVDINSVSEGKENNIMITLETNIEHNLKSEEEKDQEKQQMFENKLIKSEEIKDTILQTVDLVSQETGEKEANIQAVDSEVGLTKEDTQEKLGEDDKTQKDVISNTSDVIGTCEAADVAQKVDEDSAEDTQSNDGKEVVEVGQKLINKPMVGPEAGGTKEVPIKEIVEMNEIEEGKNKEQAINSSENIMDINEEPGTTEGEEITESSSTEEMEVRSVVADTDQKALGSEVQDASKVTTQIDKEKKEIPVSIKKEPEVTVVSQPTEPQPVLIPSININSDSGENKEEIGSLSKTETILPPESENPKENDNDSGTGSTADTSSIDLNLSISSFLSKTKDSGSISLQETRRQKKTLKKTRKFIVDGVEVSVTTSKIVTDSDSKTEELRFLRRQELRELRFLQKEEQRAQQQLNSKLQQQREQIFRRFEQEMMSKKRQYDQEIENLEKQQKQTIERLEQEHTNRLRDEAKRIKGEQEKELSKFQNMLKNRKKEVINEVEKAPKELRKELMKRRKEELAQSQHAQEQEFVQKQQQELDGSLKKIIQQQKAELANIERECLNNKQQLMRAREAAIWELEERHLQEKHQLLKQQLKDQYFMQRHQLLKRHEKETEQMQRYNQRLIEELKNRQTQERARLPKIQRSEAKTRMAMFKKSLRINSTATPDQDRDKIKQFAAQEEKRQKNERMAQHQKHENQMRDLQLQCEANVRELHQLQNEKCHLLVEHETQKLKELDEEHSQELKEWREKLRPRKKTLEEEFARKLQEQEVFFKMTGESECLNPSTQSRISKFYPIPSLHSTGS

As to `C=CC(=O)Nc1ccc(C(=O)Nc2[nH]nc3c2CN(C(=O)N[C@H](CN(C)C)c2ccccc2)C3(C)C)cc1`, the % of engagement in [1] was -1.6%.

Regarding `CN(C)C/C=C/C(=O)Nc1ccc(C(=O)N2CCCC(Nc3ncc(Cl)c(-c4c[nH]c5ccccc45)n3)C2)cc1` (stereo not drawn), in test [2], the % of control was found to be 95%. As for `CNC(=O)Nc1ccc(-c2nc(N3CC4CCC(C3)O4)c3cnn(C4CCC5(CC4)OCCO5)c3n2)cc1`, the % of inhibition on SRSF protein kinase 1 amounted to 2%. On to `CC(C)(O)[C@H](F)CN1Cc2cc(NC(=O)c3cnn4cccnc34)c(N3CCOCC3)cc2C1=O`, for which the dTM in test [3] came out at 0.4 K. In the case of `CNCCN1CCC(c2cc(CN(C)C(=O)c3cccc(Oc4ccccc4)c3)ccn2)CC1`, in [4], the % activity was above 90%. With `COc1cc(N(C)c2ccnc3ccc(C(F)(F)F)cc23)cc(OC)c1OC`, the % binding in test [5] came to 95%. As for `CN(C)CCOc1ccc(-c2nc(-c3ccncc3)c(-c3ccc4c(c3)CC/C4=N\O)[nH]2)cc1`, the % of control in test [6] turned out to be 100%.

As to `N#Cc1cccc(-c2c[nH]c3ncnc(N4CCOCC4)c23)c1`, the % of control in test [7] worked out at 100%. Turning to `CN1Cc2nccc(-c3cn(C)nc3-c3ccc(F)cc3)c2C1=O`, in test [8], the % of inhibition is -9%.

On to `CC[C@@H]1[C@H](F)C(=O)N[C@@H]1COc1nccc2cc(C(N)=O)c(OC)cc12` [ZIMLOVISERTIB], for which the % of inhibition in test [9] is 6.81%. Take `COc1cc(Nc2nc(C)cc(-c3cnn4nc(OC)ccc34)n2)cc(C(F)(F)F)c1`: the % of control in test [10] stood at 90%; in test [11] it was 98%. With `Cc1cc(F)c(C(=O)Nc2cccc(-c3nncn3C(C)C)n2)cc1-n1cnc(C2CC2)c1`, in test [12], the % of control stood at 77%. As to `C=CC(=O)Nc1cc(-n2c(=O)ccc3cnc4ccc(-c5ccc(NS(C)(=O)=O)cc5)cc4c32)ccc1C`, the % of control in test [13] (at 1 µM) came to 45%; in test [13] (at 10 µM), 0%; in test [14] (at 1 µM) it was 100%; in [14] (at 10 µM) it was 100%.

As to `O[C@H]1CC[C@H](Nc2ncc3nc(Nc4c(F)cc(F)cc4F)n([C@H]4CCOC4)c3n2)CC1`, in [15], the % of control turned out to be 100%.
